Laboratory results taken from ChEMBL document CHEMBL1155039, “Synthetic antimicrobial peptidomimetics with therapeutic potential” (J Med Chem, 2008).
Values after ≈ are worked out from the molar mass of the structure shown. Values joined by “and” are separate entries in the source; they are usually repeats but may differ in a detail not shown here. Identical values can stand only once. Active and inactive are the calls of the source. The rule behind the calls is not given here.

Key:
Staphylococcus aureus [1] = assay: Antibacterial activity against Staphylococcus aureus ATCC 25923; type: functional
Pseudomonas aeruginosa = assay: Antibacterial activity against Pseudomonas aeruginosa ATCC 27853; type: functional
Staphylococcus aureus [2] = assay: Antibacterial activity against methicillin-resistant Staphylococcus aureus ATCC 33591; type: functional
Escherichia coli [3] = assay: Antibacterial activity against Escherichia coli ATCC 25922 upto 150 ug/mL; type: functional, organism-based
[4] = test system: Staphylococcus epidermidis; assay: Antibacterial activity against methicillin-resistant Staphylococcus epidermidis ATCC 27626; type: functional
[5] = Toxicity in human erythrocytes assessed as hemolysis; type: cell-based, Erythrocyte
Staphylococcus aureus [6] = assay: Antibacterial activity against glycopeptide intermediate-resistant Staphylococcus aureus CCUG 43316; type: functional
Escherichia coli [7] = assay: Antibacterial activity against Escherichia coli ATCC 25922; type: functional
[8] = Toxicity in human erythrocytes assessed as hemolysis upto 1000 ug/mL; type: cell-based; settings: erythrocyte
[9] = Stability assessed as half life in human plasma; type: ADME, cell-free
Escherichia coli [10] = assay: Antibacterial activity against Escherichia coli ML-35p; type: functional
Escherichia coli [11] = assay: Effect on inner membrane destabilization in Escherichia coli ML-35p at 256 ug/mL; type: functional, organism-based
Staphylococcus aureus [12] = assay: Antibacterial activity against Staphylococcus aureus ATCC 25923 at 8 times MIC after 30 mins; type: functional
[13] = Effect on permeability assessed as calcein release from 1-palmitoyl-2-oleoyl-sn-glycero-3-phosphoglycerol vesicle; type: physicochemical
Plasma = assay: Stability assessed as degradation in human plasma upto 4 days; type: ADME, cell-free; settings: 96 h
Escherichia coli [14] = assay: Effect on outer membrane destabilization in Escherichia coli ML-35p at 128 ug/mL; type: functional, organism-based

In the case of `COC(=O)[C@H](CCCNC(=N)N)NC(=O)[C@H](N)Cc1c(C(C)(C)C)[nH]c2c(C(C)(C)C)cc(C(C)(C)C)cc12`, the MIC (Staphylococcus aureus [1]) is reported as 28 µM (≈ 15.2 µg/mL), the MIC (Pseudomonas aeruginosa) is reported as 92 µM (≈ 49.9 µg/mL) and the MIC (Staphylococcus aureus [2]) is reported as 28 µM (≈ 15.2 µg/mL). The Activity (Escherichia coli [3]) was “inactive”, the MIC [4] was 14 µM (≈ 7.6 µg/mL) and the EC50 [5] was 503 µM. It also gave an MIC (Staphylococcus aureus [6]) of 55 µM (≈ 29.9 µg/mL).

With `CC(C)(C)c1cc(C(C)(C)C)c2[nH]c(C(C)(C)C)c(C[C@H](NC(=O)[C@@H](N)CCCNC(=N)N)C(=O)N[C@@H](CCCNC(=N)N)C(N)=O)c2c1` the MIC (Escherichia coli [7]) was 88 µM (≈ 60.2 µg/mL), the MIC (Staphylococcus aureus [1]) was 11 µM (≈ 7.52 µg/mL) and the MIC (Pseudomonas aeruginosa) was 44 µM (≈ 30.1 µg/mL). The MIC (Staphylococcus aureus [2]) was 11 µM (≈ 7.52 µg/mL), the Activity [8] was “Not Active” and the MIC [4] was 3.7 µM (≈ 2.53 µg/mL). The MIC (Staphylococcus aureus [6]) was 22 µM (≈ 15 µg/mL).

With `COC(=O)[C@H](CCCNC(=N)N)NC(=O)[C@H](Cc1c(C(C)(C)C)[nH]c2c(C(C)(C)C)cc(C(C)(C)C)cc12)NC(=O)[C@@H](N)CCCNC(=N)N` the half-life [9] was 2 h, the MIC (Escherichia coli [7]) was 29 µM (≈ 20.3 µg/mL) and the MIC (Escherichia coli [10]) was 32 µg/mL (≈ 45.8 µM). The Activity (Escherichia coli [11]) was “Active”, the MIC (Staphylococcus aureus [1]) was 7.2 µM (≈ 5.03 µg/mL) and the CFU/ml (Staphylococcus aureus [12]) was 10000. For the same compound, the MIC (Pseudomonas aeruginosa) was 21 µM (≈ 14.7 µg/mL), the Activity [13] was “Dose-dependent effect” and the Activity (Plasma) was “Stable”. The Activity (Escherichia coli [14]) was “Active”, the MIC (Staphylococcus aureus [2]) was 3.6 µM (≈ 2.52 µg/mL) and the MIC [4] was 1 µg/mL and 1.4 µM. For the same compound, the EC50 [5] was 1010 µM and the MIC (Staphylococcus aureus [6]) was 11 µM (≈ 7.69 µg/mL).

In the case of `COC(=O)[C@H](CCCNC(=N)N)NC(=O)[C@@H](N)Cc1c(C(C)(C)C)[nH]c2c(C(C)(C)C)cc(C(C)(C)C)cc12`, the MIC (Escherichia coli [7]) is reported as 55 µM (≈ 29.9 µg/mL), the MIC (Staphylococcus aureus [1]) is reported as 9.2 µM (≈ 4.99 µg/mL) and the MIC (Pseudomonas aeruginosa) is reported as 55 µM (≈ 29.9 µg/mL). The MIC (Staphylococcus aureus [2]) was 9.2 µM (≈ 4.99 µg/mL), the MIC [4] was 4.6 µM (≈ 2.5 µg/mL) and the EC50 [5] was 451 µM. It also gave an MIC (Staphylococcus aureus [6]) of 14 µM (≈ 7.6 µg/mL).

`CC(C)(C)c1cc(C(C)(C)C)c2[nH]c(C(C)(C)C)c(C[C@H](N)C(=O)N[C@@H](CCCNC(=N)N)C(N)=O)c2c1` showed an MIC (Staphylococcus aureus [1]) of 28 µM (≈ 14.8 µg/mL), an MIC (Pseudomonas aeruginosa) of 57 µM (≈ 30.1 µg/mL) and an MIC (Staphylococcus aureus [2]) of 28 µM (≈ 14.8 µg/mL). For the same compound, the Activity (Escherichia coli [3]) was “inactive”, the MIC [4] was 14 µM (≈ 7.39 µg/mL) and the EC50 [5] was 578 µM. It also gave an MIC (Staphylococcus aureus [6]) of 57 µM (≈ 30.1 µg/mL).

For `CC(C)(C)c1cc(C(C)(C)C)c2[nH]c(C(C)(C)C)c(C[C@H](NC(=O)[C@@H](N)CCCCN)C(=O)N[C@@H](CCCNC(=N)N)C(N)=O)c2c1`, the MIC (Escherichia coli [7]) was 107 µM (≈ 70.2 µg/mL), the MIC (Staphylococcus aureus [1]) was 23 µM (≈ 15.1 µg/mL) and the MIC (Pseudomonas aeruginosa) was 76 µM (≈ 49.9 µg/mL). For the same compound, the MIC (Staphylococcus aureus [2]) was 23 µM (≈ 15.1 µg/mL), the Activity [8] was “Not Active” and the MIC [4] was 3.8 µM (≈ 2.49 µg/mL). It also gave an MIC (Staphylococcus aureus [6]) of 46 µM (≈ 30.2 µg/mL).

For `COC(=O)[C@H](CCCNC(=N)N)NC(=O)[C@@H](Cc1c(C(C)(C)C)[nH]c2c(C(C)(C)C)cc(C(C)(C)C)cc12)NC(=O)[C@@H](N)CCCNC(=N)N`, the MIC (Escherichia coli [7]) was 72 µM (≈ 50.3 µg/mL), the MIC (Staphylococcus aureus [1]) was 7.2 µM (≈ 5.03 µg/mL) and the MIC (Pseudomonas aeruginosa) was 57 µM (≈ 39.8 µg/mL). For the same compound, the MIC (Staphylococcus aureus [2]) was 7.2 µM (≈ 5.03 µg/mL), the Activity [8] was “Not Active” and the MIC [4] was 3.6 µM (≈ 2.52 µg/mL). It also gave an MIC (Staphylococcus aureus [6]) of 21 µM (≈ 14.7 µg/mL).

For `CC(C)(C)c1cc(C(C)(C)C)c2[nH]c(C(C)(C)C)c(C[C@H](NC(=O)[C@@H](N)CCCNC(=N)N)C(=O)N[C@@H](CCCNC(=N)N)C(=O)NCc3ccccc3)c2c1`, the MIC (Escherichia coli [7]) was 9.7 µM (≈ 7.51 µg/mL), the MIC (Staphylococcus aureus [1]) was 3.2 µM (≈ 2.48 µg/mL) and the MIC (Pseudomonas aeruginosa) was 6.5 µM (≈ 5.03 µg/mL). The MIC (Staphylococcus aureus [2]) was 3.2 µM (≈ 2.48 µg/mL), the MIC [4] was 1.3 µM (≈ 1.01 µg/mL) and the EC50 [5] was 116 µM. The MIC (Staphylococcus aureus [6]) was 3.2 µM (≈ 2.48 µg/mL).

Compound `CC(C)(C)c1cc(C(C)(C)C)c2[nH]c(C(C)(C)C)c(C[C@H](N)C(=O)N[C@@H](CCCNC(=N)N)C(=O)NCc3ccccc3)c2c1` has an MIC (Escherichia coli [7]) of 16 µM (≈ 9.89 µg/mL), an MIC (Staphylococcus aureus [1]) of 4 µM (≈ 2.47 µg/mL) and an MIC (Pseudomonas aeruginosa) of 12 µM (≈ 7.41 µg/mL). For the same compound, the MIC (Staphylococcus aureus [2]) was 4 µM (≈ 2.47 µg/mL), the MIC [4] was 4 µM (≈ 2.47 µg/mL) and the EC50 [5] was 97 µM. For the same compound, the MIC (Staphylococcus aureus [6]) was 8.1 µM (≈ 5 µg/mL).
